Measurements from the supplement of paper PMC10307832.

Key:
Assay in all cases: relative viability (nuclei count vs DMSO), 5 days (fraction); higher = more cells survive
HCC-827 = tested on: HCC-827
Summary of the method: (§1)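 A single step with final 0.05% Triton X-100, 1% formaldehyde and 1 ug/ml Hoechst fixed the cells and stained nuclei 5 days after treatment. Lung cancer cell lines in 1536-well plates had been treated by pin tool the day after seeding with one drug alone or a fixed anchor-drug dose plus five library-drug doses (not always all listed) in √10 steps, and nuclei were counted on 4× images. Relative viability is the ratio of nuclei in treated wells to nuclei in vehicle wells, taken as the median of duplicate plates.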

NCI-H1395 = tested on: NCI-H1395
Summary of the method: as §1

LCLC-103H = tested on: LCLC-103H
Summary of the method: as §1

EPLC-272H = tested on: EPLC-272H
Summary of the method: as §1

NCI-H23 = tested on: NCI-H23
Summary of the method: as §1

NCI-H2405 = tested on: NCI-H2405
Summary of the method: as §1

H3255 = tested on: H3255
Summary of the method: as §1

NCI-H1944 = tested on: NCI-H1944
Summary of the method: as §1

NCI-H2087 = tested on: NCI-H2087
Summary of the method: as §1

NCI-H1355 = tested on: NCI-H1355
Summary of the method: as §1

LCLC-97TM1 = tested on: LCLC-97TM1
Summary of the method: as §1

UMC-11 = tested on: UMC-11
Summary of the method: as §1

## Clc1ccc(Nc2nnc(Cc3ccncc3)c3ccccc23)cc1 [Vatalanib] + CCNC(=O)c1noc(-c2cc(C(C)C)c(O)cc2O)c1-c1ccc(CN2CCOCC2)cc1 [Luminespib] (partner 0.01 µM)
HCC-827; first compound 0.04 µM
  relative viability: 0.53
HCC-827; first compound 0.1265 µM
  relative viability: 0.614
HCC-827; first compound 0.4 µM
  relative viability: 0.494
HCC-827; first compound 1.265 µM
  relative viability: 0.638
HCC-827; first compound 4 µM
  relative viability: 0.611
NCI-H1395; first compound 0.04 µM
  relative viability: 0.668
NCI-H1395; first compound 0.1265 µM
  relative viability: 0.65
NCI-H1395; first compound 0.4 µM
  relative viability: 0.834
NCI-H1395; first compound 1.265 µM
  relative viability: 0.66
NCI-H1395; first compound 4 µM
  relative viability: 0.674
LCLC-103H; first compound 0.04 µM
  relative viability: 0.961
LCLC-103H; first compound 0.1265 µM
  relative viability: 0.878
LCLC-103H; first compound 0.4 µM
  relative viability: 0.967
LCLC-103H; first compound 1.265 µM
  relative viability: 0.969
LCLC-103H; first compound 4 µM
  relative viability: 1
EPLC-272H; first compound 0.04 µM
  relative viability: 0.593
EPLC-272H; first compound 0.1265 µM
  relative viability: 0.654
EPLC-272H; first compound 0.4 µM
  relative viability: 0.26
EPLC-272H; first compound 1.265 µM
  relative viability: 0.2
EPLC-272H; first compound 4 µM
  relative viability: 0.296
NCI-H23; first compound 0.04 µM
  relative viability: 0.229
NCI-H23; first compound 0.1265 µM
  relative viability: 0.213
NCI-H23; first compound 0.4 µM
  relative viability: 0.227
NCI-H23; first compound 1.265 µM
  relative viability: 0.19
NCI-H23; first compound 4 µM
  relative viability: 0.205
NCI-H2405; first compound 0.04 µM
  relative viability: 0.753
NCI-H2405; first compound 0.1265 µM
  relative viability: 0.775
NCI-H2405; first compound 1.265 µM
  relative viability: 0.594
NCI-H2405; first compound 4 µM
  relative viability: 0.717
H3255; first compound 0.04 µM
  relative viability: 0.881
H3255; first compound 0.1265 µM
  relative viability: 0.91
H3255; first compound 0.4 µM
  relative viability: 0.82
H3255; first compound 1.265 µM
  relative viability: 0.743
H3255; first compound 4 µM
  relative viability: 0.838
NCI-H1944; first compound 0.04 µM
  relative viability: 0.796
NCI-H1944; first compound 0.1265 µM
  relative viability: 0.687
NCI-H1944; first compound 0.4 µM
  relative viability: 0.845
NCI-H1944; first compound 1.265 µM
  relative viability: 0.679
NCI-H1944; first compound 4 µM
  relative viability: 0.752
NCI-H2087; first compound 0.04 µM
  relative viability: 0.152
NCI-H2087; first compound 0.1265 µM
  relative viability: 0.157
NCI-H2087; first compound 0.4 µM
  relative viability: 0.184
NCI-H2087; first compound 1.265 µM
  relative viability: 0.173
NCI-H2087; first compound 4 µM
  relative viability: 0.159
NCI-H1355; first compound 0.04 µM
  relative viability: 0.74
NCI-H1355; first compound 0.1265 µM
  relative viability: 0.675
NCI-H1355; first compound 0.4 µM
  relative viability: 0.748
NCI-H1355; first compound 1.265 µM
  relative viability: 0.656
NCI-H1355; first compound 4 µM
  relative viability: 0.738
LCLC-97TM1; first compound 0.04 µM
  relative viability: 0.715
LCLC-97TM1; first compound 0.1265 µM
  relative viability: 0.808
LCLC-97TM1; first compound 0.4 µM
  relative viability: 0.741
LCLC-97TM1; first compound 1.265 µM
  relative viability: 0.725
LCLC-97TM1; first compound 4 µM
  relative viability: 0.951
UMC-11; first compound 0.04 µM
  relative viability: 1.08
UMC-11; first compound 0.1265 µM
  relative viability: 1.11
UMC-11; first compound 0.4 µM
  relative viability: 0.996
UMC-11; first compound 1.265 µM
  relative viability: 1.02
UMC-11; first compound 4 µM
  relative viability: 1.01
